Results: EP2727596A1, “eEF2/eEF2K as therapeutic target for treating TNF-alpha-related diseases” (Fundación Centro Nacional de Investigaciones …, priority 2012, dated 2014)
Entries after “also recorded” stand apart in the source; their conditions may differ.

Tests used:
ERK = assay: MAPK pathway activity: ERK phosphorylation (immunoblot); format: in vivo; details: mice treated prior to LPS injection
Method: (§1) MKK3 and MKK6 are the main regulators of the α, β, γ and δ p38MAPK isoforms.
(§2) Tissue extracts were prepared using Triton lysis buffer (20 mM Tris [pH 7.4], 1% Triton X-100, 10% glycerol, 137mM NaCl, 2mM EDTA, 25mM β-glycerophosphate, 1 mM sodium orthovanadate, 1mM phenylmethylsulfonyl fluoride, and 10µg/mL aprotinin and leupeptin). Extracts (30µg protein) and immunoprecipitates (prepared from 2 mg protein) were examined by protein immunoblot analysis with antibodies to ERK1/2, phospho-ERK1/2, phospho-MKK3/6, p38α MAPK, phospho-p38, phospho-hsp27, phospho-JNK1/2, JNK1/2, caspase 3, cleaved caspase 3, cleaved PARP and phospho-eEF2 kinase (Ser366), all from Cell Signaling and MKK3 (Pharmingen), MKK6 (Stressgen), and GAPDH and eEF2 (Santa Cruz Biotechnology). The anti-p38γ and p38δ antibodies were raised against the peptides which correspond to the C termini of the proteins.

p38α/β = assay: MAPK pathway activity: phosphorylation of p38α substrate HSP27 (immunoblot); format: in vivo; details: mice treated prior to LPS injection
Method: as §1, §2

JNK = assay: MAPK pathway activity: JNK phosphorylation (immunoblot); format: in vivo; details: mice treated prior to LPS injection
Method: as §1, §2

D-Gal+LPS-treated mice = assay: D-Gal+LPS-induced liver damage (hepatitis) in mice treated with p38 inhibitors; format: in vivo; details: WT mice, inhibitor i.p. 15mg/kg prior to LPS injection
Text: (§3) MKK3 and MKK6 are the main regulators of the α, β, γ and δ p38MAPK isoforms. […] The specific action of these inhibitors on MAPK pathway activity was firstly examined. […] No changes in ERK or JNK phosphorylation were observed.
(§4) Mkk3^-/- (B6.129-Map2k3^tm1Flv), Mkk6^-l- (B6.129-Map2k6^tm1Flv) were as previously described. p38γ (B6.129-Mapk12^tm1) and p38δ (B6.129-Mapk13^tm1) mice were crossed with B6.129P2-Lyz2tm1(cre)Ifo/J and back-crossed for ten generations to the C57BL/6J background (The Jackson Labs) and genotyped by PCR analysis of genomic DNA. Radiation chimeras were generated by exposing recipient mice to two doses of ionizing radiation ([…]) and reconstituting them with 2x10^7 donor bone marrow cells by injection into the tail vein. […] Specificity of the depletion of cell populations was determined by flow cytometry of blood samples collected during the experiment.
Serum activities of alanine transaminase (ALT) and aspartate aminotrasferase (AST) were measured using the ALT and AST Reagent Kit (Biosystems Reagents) with a Benchmark Plus Microplate Spectrophotometer. Serum concentrations of cytokines were measured by multiplexed ELISA with a Luminex 200 analyzer (Millipore). […]

p38δ = biological target: T1, p38δ (Mus musculus, UniProt Q9Z1B7); details: mice treated prior to LPS injection
T1 sequence (Q9Z1B7 1-366): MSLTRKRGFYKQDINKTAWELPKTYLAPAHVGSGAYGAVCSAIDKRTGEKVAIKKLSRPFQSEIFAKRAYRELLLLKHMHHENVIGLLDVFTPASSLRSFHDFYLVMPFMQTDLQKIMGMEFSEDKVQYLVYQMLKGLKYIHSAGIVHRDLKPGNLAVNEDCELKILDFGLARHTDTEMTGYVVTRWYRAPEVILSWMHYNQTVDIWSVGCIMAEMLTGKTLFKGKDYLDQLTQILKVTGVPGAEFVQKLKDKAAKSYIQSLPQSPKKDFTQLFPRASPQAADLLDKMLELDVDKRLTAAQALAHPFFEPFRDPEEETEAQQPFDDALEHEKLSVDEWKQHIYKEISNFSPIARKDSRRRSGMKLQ
Method: as §1, §2

TNFα [1] = details: healthy males; cited from earlier work
[2] = clinical use; cited from earlier work
[3] = system: association of eEF2 with Tnfα mRNA; assay: RNA-immunoprecipitation assay: eEF2 binding to Tnfα mRNA in RAW 264.7 cells; format: cell-based, Mouse; details: RAW 264.7 cells pretreated 10µM for 30 min before LPS (60min)
Method: (A-D) BM-derived macrophages from p38γ/δ^Lyz-KO and Lyzs-cre mice were treated with LPS (10µg/ml) or TNFα (20ng/ml). Data were analyzed by two-way ANOVA coupled to Bonferroni post-tests. • (A) ELISA of TNFα and IL-6 in supernatants. • (B) qRT-PCR of Tnfα and Il-6 mRNA normalized to Gapdh, • (C) Immunoblot of BM-derived macrophage (BMM) lysates. • (D) Flow cytometry of phospho-p38 in BM-derived macrophages stimulated with LPS and TNFα for 30 min. Intracellular phospho-p38 is depicted in blue; red corresponds to the isotype control. • (D-I) Cells were treated with LPS. Tnfα mRNA was detected by qRT-PCR in immunoprecipitates (1mg protein) obtained with anti-eEF2. mRNA amounts are expressed relative to the amount detected in control IgG immunoprecipitates. Data were analyzed by Student's t-test unless otherwise indicated. • (E) Tnfα mRNA in RAW 264.7 cell immunoprecipitates. • (F) Tnfα, Hif1α, and Il-6 mRNA in RAW 264.7 cell immunoprecipitates. […] Tnfα mRNA was measured in immunoprecipitates. • (G-H) Tnfα mRNA in immunoprecipitates of BM-derived macrophages from Lyzs-cre and 38γ/δ^Lyz-KO mice (G) or WT or ΔMKK3/6 mice (H) after stimulation (60min). eEF2 in immunoprecipitates was detected by immunoblot (upper panel).
To assess whether eEF2 controls TNFα elongation it was examined the binding of eEF2 to Tnfα mRNA in immunoprecipitates of mRNA-eEF2 complexes in RAW cells. […]

IL6 = assay: serum IL6 in D-Gal+LPS-treated mice (inhibitors); format: in vivo
Text: as §3, §4
(§5) Serum activities of alanine transaminase (ALT) and aspartate aminotrasferase (AST) were measured using the ALT and AST Reagent Kit (Biosystems Reagents) with a Benchmark Plus Microplate Spectrophotometer. Serum concentrations of cytokines were measured by multiplexed ELISA with a Luminex 200 analyzer (Millipore).

TNFα [4] = assay: serum TNFα in D-Gal+LPS-treated mice (inhibitors); format: in vivo
Text: as §3, §4, §5

SMILES | ERK phosphorylation (ERK) | inhibition of p38α/β (loss of phosphorylation of p38α substrate HSP27) (p38α/β) | JNK phosphorylation (JNK) | D-Gal+LPS-induced liver damage (hemorrhage, apoptosis and necrosis) (D-Gal+LPS-treated mice) | inhibition of p38δ activation (suppression of phosphorylation of its substrate eEF2K) (p38δ) | inhibition of ex-vivo LPS-induced TNFα (TNFα [1]) [%] | liver enzyme elevations [2] | association of eEF2 with Tnfα mRNA [3] | serum levels of IL6 (IL6) | serum levels of TNFα (TNFα [4])
C[S+]([O-])c1ccc(-c2nc(-c3ccncc3)c(-c3ccc(F)cc3)[nH]2)cc1 (stereo not drawn) [SB203580] | No changes | efficiently inhibited | No changes | intensifies; also recorded: exacerbated | only BIRB796 was able to inhibit | – | – | – | – | –
Cn1c(NC[C@@H](N)Cc2ccccc2)nc(-c2ccncc2)c(-c2ccc3ccccc3c2)c1=O [AMG 548] | – | – | – | – | – | > 85 | random liver enzyme elevations | – | – | –
Cc1ccc(-n2nc(C(C)(C)C)cc2NC(=O)Nc2ccc(OCCN3CCOCC3)c3ccccc23)cc1 [BIRB796] | No changes | efficiently inhibited | No changes | improves liver condition; also recorded: protected | – | – | some liver enzyme elevations | abolished | reduced | reduced
